This is an account of results in patent US10570179B2, “Substituted urea depsipeptide analogs as activators of the CLPP endopeptidase” (priority 2016, dated 2020).

Values after ≈ are worked out from the molar mass of the structure shown. Numbered stars: 1 amine (or outer) side, 2 acyl side, 3 side chain; on linkers, the order of the positions; unused ones are H or OH. Bridge positions count the residues as written; N and C are the ends. Square brackets hold non-standard residues; d marks the D form. Peptide text beside a SMILES is read from it. * marks the point of attachment. Phe(3-CF3) = N[C@@H](Cc1cccc(C(F)(F)F)c1)C(=O)O; Piperazine(2S-CO,4-Me) = CN1CCN[C@H](C(=O)O)C1; NH(1,3-benzodioxol-5-yl) = c1cc2c(cc1N*)OCO2; Phe(3-OMe) = COc1cccc(C[C@H](N)C(=O)O)c1; Phe(3-Me) = Cc1cccc(C[C@H](N)C(=O)O)c1; NH(4-Cl-2-F-phenyl) = Fc1cc(Cl)ccc1N*; Pro(4R-Me) = C[C@H]1CN[C@H](C(=O)O)C1; NH(4-Et-phenyl) = CCc1ccc(N*)cc1; CO = O=C([*:1])[*:2]

The test system of one series is E. faecails. The series can be described thus: Minimal inhibitory concentration, microbroth dilution. It counts as cell-based. To be noted: Enterococcus faecalis; MIC; read-out: Minimal Inhibitory Concentrations (μM) E. faecails. Put shortly: (§1)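 Susceptibility testing used the CLSI dilution standard, with bacteria at ~10^5 cfu/mL exposed to a two-fold compound series beginning at 200 μM final. The endpoint is the lowest concentration showing no growth after overnight incubation (37 °C, aerobic).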
Background: Broth dilution looks for growth in wells or tubes with falling amounts of substance.

In the next series the test system is MRSA NRS70. Described as above. The series is classed as cell-based. To be noted: Staphylococcus aureus; MIC; read-out: Minimal Inhibitory Concentrations (μM) MRSA NRS70. Put shortly: as §1
The test system of a further series is S. aureus ATCC 29213. The description is as above. The series is classed as cell-based. The note with it: Staphylococcus aureus, ATCC29213; MIC; read-out: Minimal Inhibitory Concentrations (μM) S. aureus ATCC 29213. An outline of the steps:
as §1

For another series, the system named is S. aureus USA 300. The series is described as above. It counts as cell-based. To be noted: Staphylococcus aureus, USA300; MIC; read-out: Minimal Inhibitory Concentrations (μM) S. aureus USA 300. Put shortly:
as §1

In a further series the test system is S. pneumoniae. Described as above. It counts as cell-based. The note with it: Streptococcus pneumoniae; MIC; read-out: Minimal Inhibitory Concentrations (μM) S. pneumoniae. An outline of the steps: as §1
The subject of the next series is S. pyogenes. The description is as above. It counts as cell-based. To be noted: Streptococcus pyogenes; MIC; read-out: Minimal Inhibitory Concentrations (μM) S. pyogenes. Put shortly: as §1
Series [1] is described as follows: Plasma protein binding, rapid equilibrium dialysis. The note with it: mouse, 4 h, 10 μM, pH 7.4. The series is classed as in vitro ADME, mouse. (In general: In equilibrium dialysis free small molecules cross a membrane that holds back macromolecules.)
A short description of another series: Plasma pharmacokinetics. The note with it: male, BALB/c, mouse, in vivo, iv. It counts as in vivo, male BALB/c mice.

Regarding `CCc1ccc(NC(=O)N[C@@H](Cc2cccc(C)c2)C(=O)N[C@H]2COC(=O)[C@@H]3C[C@@H](C)CN3C(=O)[C@H](C)NC(=O)[C@@H]3CN(C)CCN3C(=O)[C@@H]3CCCN3C2=O)cc1` [Compound 16, (S)-2-(3-(4-ETHYLPHENYL)UREIDO)-3-(M-TOLYL)-N-((6AS,12S,15AS,17R,21S,23AS)-2,17,21-TRIMETHYL-6,11,15,20,23-PENTAOXOOCTADECAHYDRO-2H,6H,11H,15H-PYRAZINO[2,1-I]DIPYRROLO[2,1-C:2′,1′-L][1]OXA[4,7,10,13]TETRAAZACYCLOHEXADECIN-12-YL)PROPANAMIDE] ({NH(4-Et-phenyl)-CO}-[Phe(3-Me)]SP[Piperazine(2S-CO,4-Me)]A[Pro(4R-Me)]; ester 2-C), the MIC in the series on E. faecails turned out to be 0.156 µM (≈ 0.125 µg/mL); with MRSA NRS70 it was 0.313 µM (≈ 0.251 µg/mL); with S. aureus ATCC 29213, 1.25 µM (≈ 1 µg/mL); in the series on S. aureus USA 300, 0.625 µM (≈ 0.501 µg/mL); in the series with S. pneumoniae, 0.078 µM (≈ 0.0625 µg/mL); with S. pyogenes it was 0.156 µM (≈ 0.125 µg/mL). This compound also showed a Mouse in series [1] of 97.1 ± 0.1%. This compound also showed a total exposure AUC(0-inf) in the series “Plasma pharmacokinetics” of 3770 ng·h/mL. In addition, the area under the curve AUC(0-t) in the series “Plasma pharmacokinetics” is 3760 ng·h/mL. Moreover, in “Plasma pharmacokinetics”, the “C^0” value is given as 18634.35 ng/mL. This compound also yielded a clearance in “Plasma pharmacokinetics” of 44.3 mL/min/kg. For the same compound, the half-life in the series “Plasma pharmacokinetics” was 15 min. Further, the Vd in “Plasma pharmacokinetics” (10 mg/kg, Route i.v., read-out: Vss) came out at 0.57 L/kg.

In the case of `Cc1cccc(C[C@H](NC(=O)Nc2ccc3c(c2)OCO3)C(=O)N[C@H]2COC(=O)[C@@H]3C[C@@H](C)CN3C(=O)[C@H](C)NC(=O)[C@@H]3CN(C)CCN3C(=O)[C@@H]3CCCN3C2=O)c1` [Compound 17, (S)-2-(3-(BENZO[D][1,3]DIOXOL-5-YL)UREIDO)-3-(M-TOLYL)-N-((6AS,12S,15AS,17R,21S,23AS)-2,17,21-TRIMETHYL-6,11,15,20,23-PENTAOXOOCTADECAHYDRO-2H,6H,11H,15H-PYRAZINO[2,1-I]DIPYRROLO[2,1-C:2′,1′-L][1]OXA[4,7,10,13]TETRAAZACYCLOHEXADECIN-12-YL)PROPANAMIDE] ({NH(1,3-benzodioxol-5-yl)-CO}-[Phe(3-Me)]SP[Piperazine(2S-CO,4-Me)]A[Pro(4R-Me)]; ester 2-C), the MIC in the series on E. faecails is 1.25 µM (≈ 1.02 µg/mL); in the series on MRSA NRS70, 5 µM (≈ 4.08 µg/mL); in the series with S. aureus ATCC 29213, 20 µM (≈ 16.3 µg/mL); in the series on S. aureus USA 300 it was 10 µM (≈ 8.17 µg/mL); in the series with S. pneumoniae, 0.313 µM (≈ 0.256 µg/mL); in the series on S. pyogenes, 1.25 µM (≈ 1.02 µg/mL). In addition, the Mouse in series [1] is listed as 88.4 ± 1.6%.

Turning to `C[C@@H]1C[C@H]2C(=O)OC[C@H](NC(=O)[C@H](Cc3cccc(C(F)(F)F)c3)NC(=O)Nc3ccc(Cl)cc3F)C(=O)N3CCC[C@H]3C(=O)N3CCN(C)C[C@H]3C(=O)N[C@@H](C)C(=O)N2C1` [Compound 18, (S)-2-(3-(4-CHLORO-2-FLUOROPHENYL)UREIDO)-3-(3-(TRIFLUOROMETHYL)PHENYL)-N-((6AS,12S,15AS,17R,21S,23AS)-2,17,21-TRIMETHYL-6,11,15,20,23-PENTAOXOOCTADECAHYDRO-2H,6H,11H,15H-PYRAZINO[2,1-I]DIPYRROLO[2,1-C:2′,1′-L][1]OXA[4,7,10,13]TETRAAZACYCLOHEXADECIN-12-YL)PROPANAMIDE] ({NH(4-Cl-2-F-phenyl)-CO}-[Phe(3-CF3)]SP[Piperazine(2S-CO,4-Me)]A[Pro(4R-Me)]; ester 2-C), the MIC in the series with E. faecails was 0.313 µM (≈ 0.275 µg/mL); with MRSA NRS70 it was 5 µM (≈ 4.4 µg/mL); with S. aureus ATCC 29213 it was 10 µM (≈ 8.79 µg/mL); in the series on S. aureus USA 300, 10 µM (≈ 8.79 µg/mL); with S. pneumoniae it was less than 0.02 µM; with S. pyogenes, 0.625 µM (≈ 0.55 µg/mL). For the same compound, the Mouse in series [1] amounted to 99.2 ± 0.1%.

On to `COc1cccc(C[C@H](NC(=O)Nc2ccc(Cl)cc2F)C(=O)N[C@H]2COC(=O)[C@@H]3C[C@@H](C)CN3C(=O)[C@H](C)NC(=O)[C@@H]3CN(C)CCN3C(=O)[C@@H]3CCCN3C2=O)c1` [Compound 19, (S)-2-(3-(4-CHLORO-2-FLUOROPHENYL)UREIDO)-3-(3-METHOXYPHENYL)-N-((6AS,12S,15AS,17R,21S,23AS)-2,17,21-TRIMETHYL-6,11,15,20,23-PENTAOXOOCTADECAHYDRO-2H,6H,11H,15H-PYRAZINO[2,1-I]DIPYRROLO[2,1-C:2′,1′-L][1]OXA[4,7,10,13]TETRAAZACYCLOHEXADECIN-12-YL)PROPANAMIDE] ({NH(4-Cl-2-F-phenyl)-CO}-[Phe(3-OMe)]SP[Piperazine(2S-CO,4-Me)]A[Pro(4R-Me)]; ester 2-C), for which the MIC with E. faecails worked out at 10 µM (≈ 8.41 µg/mL); in the series on MRSA NRS70 it was 10 µM (≈ 8.41 µg/mL); with S. aureus ATCC 29213 it was 10 µM (≈ 8.41 µg/mL); with S. aureus USA 300 it was 10 µM (≈ 8.41 µg/mL); in the series on S. pneumoniae, 2.5 µM (≈ 2.1 µg/mL); in the series on S. pyogenes, 10 µM (≈ 8.41 µg/mL). Further, the Mouse in series [1] is 98.3 ± 0.1%.

For orientation: AUC(0-inf) means total exposure, with the tail of the curve extrapolated. Low readings indicate less exposure, high ones more exposure. A word on the AUC(0-t): it is the area under the concentration-time curve up to a stated or last time point. One may read the clearance as the rate of elimination divided by the concentration. A low value points to inefficient removal. As usually defined, the half-life is the time needed for the level to fall by half in the phase considered. A high value points to slow loss.
